Patent publication EP0791056B1, “LIPID-CLEAVAGE ENZYME COMPLEX” (priority 1994, dated 1996)

Legend:
Phospholipase C = details: cited from earlier work
LCE [1] = test: Effect of phospholipase C/D inhibitors and activators on LCE as stated in the description; assay type: biochemical
LCE [2] = test: Influence of enzyme inhibitors or activators on LCE activity, CEM-SS membrane fraction; assay type: biochemical; details: LCE Membranfraktion CEM-SS
Protocol: (§1) Das Pipettierschema ist in der folgenden Tabelle angegeben. Tabelle
(§2) Zur Untersuchung der enzymatischen Spaltung in Abhängigkeit von der Substratkonzentration wurde eine Substratstammlösung von 0.98 nmol [^14C]-AZT-DMDOPE und 0.7 nmol AZT-DMDOPE/80 µl Aqua bidest. im LCE-Assay angesetzt. Die verschiedenen Substratkonzentrationen im LCE-Assay wurden durch kontinuierliche Verdopplung bzw. Halbierung des Volumens an Substratlösung eingestellt. Die Ansätze wurden in Glasröhrchen (5 ml) vorgelegt und durch Zugabe der Substratlösung gestartet. Die Inkubation wurde bei 37 °C im Wasserbad unter leichtem Schütteln durchgeführt.
Die Reaktionsansätze des LCE-Assays wurden nach entsprechender Inkubationszeit dem Wasserbad entnommen, und die Reaktion durch Zugabe von 750 µl 2-Propanol gestoppt. Nach gründlicher Durchmischung wurden die Ansätze anschließend mit 700 µl auf Raumtemperatur erwärmtem n-Heptan versetzt. Die Ansätze wurden erneut für 30 sec gut gemischt und zur Beschleunigung der Phasentrennung in der Minifuge T bei 3200 rpm für 15 min bei Raumtemperatur zentrifugiert. Anschließend wurden 500 µl der oberen Phase (n-Heptan) entnommen und in neue Glasröhrchen (5 ml) mit 10 mg Kieselgel 60 H und 200 µl n-Heptan überführt. Die Ansätze wurden für 30 sec gut durchmischt und zur Sedimentation des Kieselgels für 10 min unter oben genannten Bedingungen zentrifugiert. […]

LCE [3] = test: Influence of enzyme inhibitors or activators on LCE activity, kidney membrane fraction; assay type: biochemical, Balb/c; details: LCE Membranfraktion Niere (Balb/c)
Protocol: as §1, §2
Die Reaktionsansätze des LCE-Assays wurden nach entsprechender Inkubationszeit dem Wasserbad entnommen, und die Reaktion durch Zugabe von 750 µl 2-Propanol gestoppt. Nach gründlicher Durchmischung wurden die Ansätze anschließend mit 700 µl auf Raumtemperatur erwärmtem n-Heptan versetzt. Die Ansätze wurden erneut für 30 sec gut gemischt und zur Beschleunigung der Phasentrennung in der Minifuge T bei 3200 rpm für 15 min bei Raumtemperatur zentrifugiert. Anschließend wurden 500 µl der oberen Phase (n-Heptan) entnommen und in neue Glasröhrchen (5 ml) mit 10 mg Kieselgel 60 H und 200 µl n-Heptan überführt. Die Ansätze wurden für 30 sec gut durchmischt und zur Sedimentation des Kieselgels für 10 min unter oben genannten Bedingungen zentrifugiert. Vom Überstand wurden anschließend 500 µl entnommen und mit 3 ml Szintillationsflüssigkeit versetzt. Die Messung der Radioaktivität erfolgte für 4 min im Flüssigkeits-Szintillations-Analysator. Zur Bestimmung des Absolutwertes an Radioaktivität wurden 200 µl der Substratlösung mit 3 ml Szintillationsflüssigkeit versetzt und unter gleichen Bedingungen im Flüssigkeits-Szintillations-Analysator gemessen.

Compound: S=C(S)OC1CC2CC1C1CCCC21 (stereo not shown) [D 609, Tricyclodecan-9-yl-xanthogenat]
- Einfluß auf Phospholipase C (Phospholipase C): inhibiert
- Einfluß auf LCE (Hemmung/Aktivierung) (LCE [1]): aktiviert
- Einfluß auf LCE-Aktivität (LCE [2]): Stimulation Stimulation
- Einfluß auf LCE-Aktivität (LCE [3]): Stimulation Stimulation
